One test addresses MAO-A enzyme (Homo sapiens (Human), UniProt P21397). Put plainly: Measurement of MAO-A inhibitory activity (MAO-Glo Assay). The format is biochemical.
Another test has as its target human LSD1(172-833) (Homo sapiens (Human), UniProt O60341). Put plainly: Measurement of LSD1 inhibitory activity (time-resolved fluorescence, biotin-histone H3 mono methylated K4 peptide). The format is biochemical. How it is done: When the turbidity reached 500 Klett units, the culture temperature was changed to 16° C., IPTG (Isopropyl β-D-1-thiogalactopyranoside) having a final concentration of 0.5 mM was added to induce expression, and the cells were cultured further for 14 hr. The culture medium was centrifuged at 6,000 g for 15 min, and Escherichia coil pellets were recovered.
Using Branson ultrasonic disintegrator, the suspension was disrupted by ultrasonication for 3 min, and centrifuged at 33,000 g for 60 min, and the supernatant was recovered. […] It was concentrated to 10 mL with AmiconUltra (NWCO 30K) (Millipore Japan), and purified with HiLoad 26/60 Superdex 200 pg column (GE Healthcare) equilibrated with Buffer A to give hLSD1 purified product (8.4 mg). The protein concentration of hLSD1 was measured by BCA Protein Assay Kit (Thermo Fisher Scientific K.K.) using bovine serum albumin as the standard.
(5) Measurement of LSD1 Inhibitory Activity
After reaction at room temperature for 5 min, 1 mM 2-PCPA solution was added 5 μL to terminate the reaction. A detection solution ([…] potassium fluoride, 0.1% BSA) containing europium-labeled anti-histone H3 antibody (Wako Pure Chemical Industries, Ltd.) and Streptavidin-XL665 (Cisbio) was further added by 5 μL, and the mixture was left standing for 60 min.

A further test addresses MAO-B enzyme (Homo sapiens (Human), UniProt P27338). Put plainly: Measurement of MAO-B inhibitory activity (MAO-Glo Assay).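 Also: luminescence read-out, compound preincubated 10 min with enzyme then reacted 60 min at room temperature, inhibition relative to enzyme reaction without compound, blank lacking enzyme and compound.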 The conditions noted are these: read-out: MAO-B IC50 value.

Structures are written as SMILES. Counter-ions that a name gives are not always drawn.

Sequence of MAO-B enzyme (P27338 whole entry): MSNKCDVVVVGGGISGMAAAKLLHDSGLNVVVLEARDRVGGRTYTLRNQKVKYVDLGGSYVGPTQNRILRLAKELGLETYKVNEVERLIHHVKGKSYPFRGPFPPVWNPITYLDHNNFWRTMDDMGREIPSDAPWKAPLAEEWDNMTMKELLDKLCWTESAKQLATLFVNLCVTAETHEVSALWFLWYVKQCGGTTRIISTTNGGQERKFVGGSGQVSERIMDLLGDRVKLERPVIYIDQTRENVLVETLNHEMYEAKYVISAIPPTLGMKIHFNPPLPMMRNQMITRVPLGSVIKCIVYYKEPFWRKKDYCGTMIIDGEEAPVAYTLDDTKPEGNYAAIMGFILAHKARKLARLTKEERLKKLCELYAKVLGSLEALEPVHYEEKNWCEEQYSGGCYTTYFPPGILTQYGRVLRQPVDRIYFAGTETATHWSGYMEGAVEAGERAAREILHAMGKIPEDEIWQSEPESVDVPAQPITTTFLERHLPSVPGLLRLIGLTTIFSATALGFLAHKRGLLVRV
Sequence of MAO-A enzyme (P21397 whole entry): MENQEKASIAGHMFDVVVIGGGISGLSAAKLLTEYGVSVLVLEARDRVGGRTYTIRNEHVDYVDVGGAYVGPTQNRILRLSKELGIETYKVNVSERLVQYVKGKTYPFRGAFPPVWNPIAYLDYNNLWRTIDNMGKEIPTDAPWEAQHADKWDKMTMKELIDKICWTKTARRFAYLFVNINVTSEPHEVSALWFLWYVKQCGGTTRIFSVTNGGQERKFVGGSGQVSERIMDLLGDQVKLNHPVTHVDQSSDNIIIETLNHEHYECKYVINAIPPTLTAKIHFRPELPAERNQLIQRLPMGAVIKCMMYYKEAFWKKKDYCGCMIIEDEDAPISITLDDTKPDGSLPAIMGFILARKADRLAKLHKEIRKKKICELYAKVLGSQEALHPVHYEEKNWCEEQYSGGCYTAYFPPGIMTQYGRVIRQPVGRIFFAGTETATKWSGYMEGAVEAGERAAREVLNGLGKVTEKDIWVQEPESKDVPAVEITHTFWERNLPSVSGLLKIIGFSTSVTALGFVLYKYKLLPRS
Protocol for MAO-B enzyme: The MAO-B inhibitory activity evaluation described below followed the protocol of MAO-Glo (registered trademark) Assay of Promega KK.
A test compound dissolved in 4% DMSO was added by 12.5 μL to 25 μL reaction solution (100 mM HEPES (pH 7.5), 5% glycerol, 10% DMSO) containing 400 ng of MAO-B enzyme (Sigma-Aldrich Co. LLC.), and the mixture was reacted at room temperature for 10 min. […] After reaction at room temperature for 60 min, Luciferine detection reagent (Promega KK) (50 μL) was added to terminate the reaction. After reaction at room temperature for 20 min with stirring, the luminescence was measured by Envision (PerkinElmer). The MAO-B inhibitory rate (%) of the test compound was calculated by the following formula. inhibitory rate(%)=(1−(test compound count−blank)÷(control−blank))×100
The count of the MAO-B enzyme reaction mixture under compound non-addition conditions is indicated as control, and the count under compound non-addition and MAO-B enzyme non-addition conditions is indicated as blank.

One may read the IC50 as the point on the concentration scale where inhibition reaches its midpoint. With `O=C(NCc1ccccc1)c1ccc([C@@H]2C[C@H]2NCc2cccs2)cc1` (relative stereo) [Example 46, N-benzyl-4-(trans-2-((2-thienylmethyl)amino)cyclopropyl)benzamide trifluoroacetate], the IC50 against MAO-A enzyme was 1.8 µM; on human LSD1(172-833), less than 0.1 µM; on MAO-B enzyme, greater than 10 µM.
The matching figures for `O=C(NCCc1ccccn1)c1ccc([C@@H]2C[C@H]2NCC2CC2)cc1` (relative stereo) [Example 19, 4-(trans-2-((cyclopropylmethyl)amino)cyclopropyl)-N-(2-(pyridin-2-yl)ethyl)benzamide bis(trifluoroacetate)]: greater than 10 µM, less than 0.1 µM and greater than 10 µM.
On to `Cc1ccccc1CN[C@@H]1C[C@H]1c1ccc(C(=O)NCc2ccccc2)cc1` (relative stereo) [Example 33, N-benzyl-4-(trans-2-((2-methylbenzyl)amino)cyclopropyl)benzamide trifluoroacetate], for which the IC50 against MAO-A enzyme is greater than 10 µM; against human LSD1(172-833) it was less than 0.1 µM; on MAO-B enzyme, greater than 10 µM.
With `Cc1cc(C)nc(Sc2cccc(NC(=O)c3cccc([C@@H]4C[C@H]4NCC4CC4)c3)c2)n1` (relative stereo) [Example 132, 3-(trans-2-((cyclopropylmethyl)amino)cyclopropyl)-N-(3-((4,6-dimethylpyrimidin-2-yl)sulfanyl)phenyl)benzamide trifluoroacetate], the IC50 was greater than 10 µM against MAO-A enzyme, less than 0.1 µM against human LSD1(172-833) and greater than 10 µM at MAO-B enzyme.
With `O=C(NCc1ccc(N2CCOCC2)cc1)c1ccc([C@@H]2C[C@H]2NCC2CC2)cc1` (relative stereo) [Example 28, 4-(trans-2-((cyclopropylmethyl)amino)cyclopropyl)-N-(4-(morpholin-4-yl)benzyl)benzamide bis(trifluoroacetate)], the concentration for half-maximal inhibition (IC50) at MAO-A enzyme was greater than 10 µM; at human LSD1(172-833), less than 0.1 µM; on MAO-B enzyme, greater than 10 µM.
For `N#Cc1ccc(CN[C@@H]2C[C@H]2c2ccc(C(=O)NCc3ccccc3)cc2)cc1` (relative stereo) [Example 36, N-benzyl-4-(trans-2-((4-cyanobenzyl)amino)cyclopropyl)benzamide trifluoroacetate], the values for the half-maximal inhibitory concentration (IC50) against MAO-A enzyme, against human LSD1(172-833) and at MAO-B enzyme were 4.3 µM, less than 0.1 µM and greater than 10 µM, respectively.
In the case of `O=C(NCCc1ccccc1)c1cccc([C@@H]2C[C@H]2NCC2CC2)c1` (relative stereo) [Example 120, 3-(trans-2-((cyclopropylmethyl)amino)cyclopropyl)-N-(2-phenylethyl) benzamide trifluoroacetate], the 50% inhibitory concentration (IC50) at MAO-A enzyme was 9.6 µM; at human LSD1(172-833) it was less than 0.1 µM; at MAO-B enzyme, greater than 10 µM.
The matching figures for `O=C(Nc1cccc(F)c1)c1cccc([C@@H]2C[C@H]2NCC2CC2)c1` (relative stereo) [Example 122, 3-(trans-2-((cyclopropylmethyl)amino)cyclopropyl)-N-(3-fluorophenyl) benzamide trifluoroacetate]: greater than 10 µM, less than 0.1 µM and greater than 10 µM.
With `CC(C)(C)c1ccc(CN[C@@H]2C[C@H]2c2ccc(C(=O)NCc3ccccc3)cc2)cc1` (relative stereo) [Example 31, N-benzyl-4-(trans-2-((4-tert-butylbenzyl)amino)cyclopropyl)benzamide trifluoroacetate], the IC50 against MAO-A enzyme is 4 µM; against human LSD1(172-833) it was less than 0.1 µM; on MAO-B enzyme, greater than 10 µM.
Consider `CN(Cc1ccccc1)C(=O)c1ccc([C@@H]2C[C@H]2NCC2CC2)cc1` (relative stereo) [Example 10, N-benzyl-4-(trans-2-((cyclopropylmethyl)amino)cyclopropyl)-N-methylbenzamide hydrochloride], for which the figures for the IC50 against MAO-A enzyme, against human LSD1(172-833) and at MAO-B enzyme were 7 µM, less than 0.1 µM and greater than 10 µM, respectively.
For `O=C(Nc1cnn(Cc2ccc(F)cc2)c1)c1cccc([C@@H]2C[C@H]2NC2CCOCC2)c1` (relative stereo) [Example 217, N-(1-(4-fluorobenzyl)-1H-pyrazol-4-yl)-3-(trans-2-(tetrahydro-2H-pyran-4-ylamino)cyclopropyl)benzamide dihydrochloride], in that order: greater than 10 µM, less than 0.1 µM and greater than 10 µM.
For `O=C(NCc1ncccc1C(F)(F)F)c1ccc([C@@H]2C[C@H]2NCC2CC2)cc1` (relative stereo) [Example 26, 4-(trans-2-((cyclopropylmethyl)amino)cyclopropyl)-N-((3-(trifluoromethyl)pyridin-2-yl)methyl)benzamide bis(trifluoroacetate)], in that order: greater than 10 µM, less than 0.1 µM and greater than 10 µM.
For `Cc1cnc(CNC(=O)c2ccc([C@@H]3C[C@H]3NCC3CC3)cc2)cn1` (relative stereo) [Example 15, 4-(trans-2-((cyclopropylmethyl)amino)cyclopropyl)-N-((5-methylpyrazin-2-yl)methyl)benzamide bis(trifluoroacetate)], in that order: greater than 10 µM, less than 0.1 µM and greater than 10 µM.
Turning to `O=C(NCc1ccccc1)c1ccc([C@@H]2C[C@H]2NCc2ccc(-c3cnccn3)cc2)cc1` (relative stereo) [Example 45, N-benzyl-4-(trans-2-((4-(pyrazin-2-yl)benzyl)amino)cyclopropyl)benzamide bis(trifluoroacetate)], the 50% inhibitory concentration (IC50) on MAO-A enzyme is 1.7 µM; against human LSD1(172-833), less than 0.1 µM; on MAO-B enzyme, greater than 10 µM.
Take `CN1CCC(N[C@@H]2C[C@H]2c2cccc(C(=O)NC3CCCC3)c2)CC1` (relative stereo) [Example 200, N-cyclopentyl-3-(trans-2-((1-methylpiperidin-4-yl)amino)cyclopropyl)benzamide dihydrochloride]: the IC50 was greater than 10 µM against MAO-A enzyme, less than 0.1 µM at human LSD1(172-833) and greater than 10 µM at MAO-B enzyme.
Consider `O=C1COc2ccc(CN[C@@H]3C[C@H]3c3ccc(C(=O)NCc4ccccc4)cc3)cc2N1` (relative stereo) [Example 44, N-benzyl-4-(trans-2-(((3-oxo-3,4-dihydro-2H-1,4-benzoxazin-6-yl)methyl)amino)cyclopropyl)benzamide trifluoroacetate], for which the IC50 is 1.3 µM at MAO-A enzyme, less than 0.1 µM on human LSD1(172-833) and greater than 10 µM on MAO-B enzyme.
For `Cc1ccsc1CN[C@@H]1C[C@H]1c1ccc(C(=O)NCc2ccccc2)cc1` (relative stereo) [Example 47, N-benzyl-4-(trans-2-(((3-methyl-2-thienyl)methyl)amino)cyclopropyl)benzamide trifluoroacetate], in that order: 5 µM, less than 0.1 µM and greater than 10 µM.
For `O=C(Nc1cnn(-c2ccc(F)cc2)c1)c1cccc([C@@H]2C[C@H]2NC2CCOCC2)c1` (relative stereo) [Example 196, N-(1-(4-fluorophenyl)-1H-pyrazol-4-yl)-3-(trans-2-(tetrahydro-2H-pyran-4-ylamino)cyclopropyl)benzamide dihydrochloride], in that order: greater than 10 µM, less than 0.1 µM and greater than 10 µM.

The values above are taken from patent publication US9751885B2, “Cyclopropanamine compound and use thereof” (Takeda Pharmaceutical Company Limited, priority 2012, dated 2017).
